Measured values: US7964531B2, “3-phenoxy-4-pyridazinol derivatives and herbicidal composition containing the same” (Mitsui Chemicals Agro, Inc., priority 2001, dated 2011)

Work on `Cc1ccccc1Oc1n[n+]([O-])c(Cl)cc1O` [Compound No. 129, 6-Chloro-3-(2-methylphenoxy)-4-pyridazinol 1-oxide] yielded a melting point of 194 to 196 °C.

Work on `CCc1ccccc1Oc1nnc(Cl)cc1O` [Compound No. 130, 6-Chloro-3-(2-ethylphenoxy)-4-pyridazinol] yielded a melting point of 217 to 218 °C.

Work on `CCCc1ccccc1Oc1nnc(Cl)cc1O` [Compound No. 131, 6-Chloro-3-(2-propylphenoxy)-4-pyridazinol] yielded a melting point of 170 to 172 °C.

`CCCCc1ccccc1Oc1nnc(Cl)cc1O` [Compound No. 133, 3-(2-Butylphenoxy)-6-chloro-4-pyridazinol] gave a melting point of 149.5 to 150 °C.

Work on `CC(C)Cc1ccccc1Oc1nnc(Cl)cc1O` [Compound No. 134, 6-Chloro-3-(2-isobutylphenoxy)-4-pyridazinol] yielded a melting point of 151.5 to 152.5 °C.

Compound `CCC(C)c1ccccc1Oc1nnc(Cl)cc1O` (centres unmarked) [Compound No. 135, 3-(2-s-Butylphenoxy)-6-chloro-4-pyridazinol] has a melting point of 158 to 159 °C.

Compound `CC(C)(C)c1ccccc1Oc1nnc(Cl)cc1O` [Compound No. 136, 3-(2-tert-Butylphenoxy)-6-chloro-4-pyridazinol] has a melting point of 215 to 216 °C.

Work on `CCCCCc1ccccc1Oc1nnc(Cl)cc1O` [Compound No. 137, 6-Chloro-3-(2-pentylphenoxy)-4-pyridazinol] yielded a melting point of 151.5 to 152.5 °C.

`CCCCCCc1ccccc1Oc1nnc(Cl)cc1O` [Compound No. 138, 6-Chloro-3-(2-hexylphenoxy)-4-pyridazinol] showed a melting point of 118 to 118.5 °C.

`Oc1cc(Cl)nnc1Oc1ccccc1C1CC1` [Compound No. 139, 6-Chloro-3-(2-cyclopropylphenoxy)-4-pyridazinol] gave a melting point of 229 to 231 °C.

For `Oc1cc(Cl)nnc1Oc1ccccc1C1(F)CC1` [Compound No. 140, 6-Chloro-3-[2-(1-fluorocyclopropyl)phenoxy]-4-pyridazinol], the melting point was 152 to 157 °C.

In the case of `CC1(c2ccccc2Oc2nnc(Cl)cc2O)CC1` [Compound No. 144, 6-Chloro-3-[2-(1-methylcyclopropyl)phenoxy]-4-pyridazinol], the melting point was 196 to 198 °C.

`CCC1(c2ccccc2Oc2nnc(Cl)cc2O)CC1` [Compound No. 145, 6-Chloro-3-[2-(1-ethylcyclopropyl)phenoxy]-4-pyridazinol] gave a melting point of 162 to 165 °C.

For `Oc1cc(Cl)nnc1Oc1ccccc1C1(C2CC2)CC1` [Compound No. 151, 6-Chloro-3-{2-[1-(cyclopropyl)cyclopropyl]phenoxy}-4-pyridazinol], the melting point was 180 to 182 °C.

In the case of `COCC1(c2ccccc2Oc2nnc(Cl)cc2O)CC1` [Compound No. 163, 6-Chloro-3-{2-[1-(methoxymethyl)cyclopropyl]phenoxy}-4-pyridazinol], the melting point was 187 to 190 °C.

`N#CC1(c2ccccc2Oc2nnc(Cl)cc2O)CC1` [Compound No. 173, 1-{2-[(6-Chloro-4-hydroxy-3-pyridazinyl)oxy]phenyl}cyclopropanecarbonitrile] gave a melting point of 63 to 64 °C.

In the case of `Oc1cc(Cl)nnc1Oc1ccccc1C1(c2ccccc2)CC1` [Compound No. 184, 6-Chloro-3-[2-(1-phenylcyclopropyl)phenoxy]-4-pyridazinol], the melting point was 172 to 173 °C.

`COC1(c2ccccc2Oc2nnc(Cl)cc2O)CC1` [Compound No. 202, 6-Chloro-3-[2-(1-methoxycyclopropyl)phenoxy]-4-pyridazinol] gave a melting point of 157 to 165 °C.

For `CC1CC1c1ccccc1Oc1nnc(Cl)cc1O` (centres unmarked) [Compound No. 217, 6-Chloro-3-[2-(2-methylcyclopropyl)phenoxy]-4-pyridazinol], the melting point was 192 to 208 °C.

For `CCOC1CC1c1ccccc1Oc1nnc(Cl)cc1O` (centres unmarked) [Compound No. 249, 6-Chloro-3-[2-(2-ethoxycyclopropyl)phenoxy]-4-pyridazinol], the melting point was 145 to 152 °C.

For `Oc1cc(Cl)nnc1Oc1ccccc1C1CC1(F)F` (centres unmarked) [Compound No. 264, 6-Chloro-3-[2-(2,2-difluorocyclopropyl)phenoxy]-4-pyridazinol], the melting point was 215 to 216 °C.

In the case of `Oc1cc(Cl)nnc1Oc1ccccc1C1CC1(Cl)Cl` (centres unmarked) [Compound No. 265, 6-Chloro-3-[2-(2,2-dichlorocyclopropyl)phenoxy]-4-pyridazinol], the melting point was 158 to 163 °C.

With `Oc1cc(Cl)nnc1Oc1ccccc1C1CC1(Br)Br` (centres unmarked) [Compound No. 266, 6-Chloro-3-[2-(2,2-dibromocyclopropyl)phenoxy]-4-pyridazinol] the melting point was 208 to 210 °C (dec.).

`CC1(C)CC1c1ccccc1Oc1nnc(Cl)cc1O` (centres unmarked) [Compound No. 267, 6-Chloro-3-[2-(2,2-dimethylcyclopropyl)phenoxy]-4-pyridazinol] gave a melting point of 187 to 188 °C.

`Oc1cc(Cl)nnc1Oc1ccccc1C1CCC1` [Compound No. 284, 6-Chloro-3-(2-cyclobutylphenoxy)-4-pyridazinol] showed a melting point of 188 to 189 °C.

`N#CC1(c2ccccc2Oc2nnc(Cl)cc2O)CCC1` [Compound No. 287, 1-{2-[(6-Chloro-4-hydroxy-3-pyridazinyl)oxy]phenyl}cyclobutanecarbonitrile] showed a melting point of 213 to 215 °C.

`O=C(O)C1(c2ccccc2Oc2nnc(Cl)cc2O)CCC1` [Compound No. 288, 1-{2-[(6-Chloro-4-hydroxy-3-pyridazinyl)oxy]phenyl}cyclobutanecarboxylic acid] showed a melting point of 173 to 175 °C.

Compound `Oc1cc(Cl)nnc1Oc1ccccc1C1CCCC1` [Compound No. 292, 6-Chloro-3-(2-cyclopentylphenoxy)-4-pyridazinol] has a melting point of 178 to 180 °C.

With `Oc1cc(Cl)nnc1Oc1ccccc1C1CCCCC1` [Compound No. 293, 6-Chloro-3-(2-cyclohexylphenoxy)-4-pyridazinol] the melting point was 158 to 159 °C.

Work on `C=C(C)c1ccccc1Oc1nnc(Cl)cc1O` [Compound No. 304, 6-Chloro-3-(2-isopropenylphenoxy)-4-pyridazinol] yielded a melting point of 187 to 188 °C.

With `CC=Cc1ccccc1Oc1nnc(Cl)cc1O` [Compound No. 305, 6-Chloro-3-[2-(1-propenyl)phenoxy}-4-pyridazinol] the melting point was 204 to 206 °C.

Compound `N#C/C=C/c1ccccc1Oc1nnc(Cl)cc1O` [Compound No. 306, (2E)-3-{2-[(6-Chloro-4-hydroxy-3-pyridazinyl)oxy]phenyl}acrylonitrile] has a melting point of 190 to 192 °C.

For `C=CCc1ccccc1Oc1nnc(Cl)cc1O` [Compound No. 307, 3-(2-Allylphenoxy)-6-chloro-4-pyridazinol], the melting point was 200 to 202.5 °C.

`C#Cc1ccccc1Oc1nnc(Cl)cc1O` [Compound No. 308, 6-Chloro-3-(2-ethynylphenoxy)-4-pyridazinol] showed a melting point of 189 to 191 °C.

`CC#Cc1ccccc1Oc1nnc(Cl)cc1O` [Compound No. 309, 6-Chloro-3-[2-(1-propynyl)phenoxy]-4-pyridazinol] gave a melting point of 182 to 184 °C.

For `Oc1cc(Cl)nnc1Oc1ccccc1CC1CC1` [Compound No. 311, 6-Chloro-3-[2-(cyclopropylmethyl)phenoxy]-4-pyridazinol], the melting point was 165 to 168 °C.

`Oc1cc(Cl)nnc1Oc1ccccc1Cc1ccccc1` [Compound No. 315, 3-(2-Benzylphenoxy)-6-chloro-4-pyridazinol] showed a melting point of 185 to 187 °C.

With `COCc1ccccc1Oc1nnc(Cl)cc1O` [Compound No. 324, 6-Chloro-3-[2-(methoxymethyl)phenoxy]-4-pyridazinol] the melting point was 211 to 212 °C.
